Read-outs that look alike come from different tables or passages of the source. Values belong to the compound of their own block, whether it stands above or below them.
Columns and labels:
[1] = tested on: extrinsic coagulation pathway; experiment: Prothrombin time (PT) and INR in human citrated plasma
Protocol: The first stage assessed the changes in plasma hemostasis occurring under the influence of the five test compounds. Plasma was incubated with the tested compounds and ligands at six different concentrations ranging from 0.5 to 100 µmol/L. The plasma was obtained from five different volunteers. To evaluate the impact on the extrinsic coagulation pathway, the prothrombin time (PT) was determined in human citrated plasma, expressed in seconds and as the international normalized ratio (INR) (Figure 6 and Figure 7).
(§1) The plasma was used for the hemostasis tests.
The results are presented as means ± standard deviation (SD).

[2] = tested on: intrinsic coagulation pathway; settings: 100 µmol/L (highest concentration), mean within reference range 26.7–40.0 s
Protocol: To evaluate the intrinsic coagulation pathway, the plasma was mixed with the tested compounds at the same concentrations as in the PT analysis, and the activated partial thromboplastin time (APTT) was measured.
as §1
The PT, APTT and TT were measured using a Coag Chrom 3003 coagulometer (Bio-Ksel, Grudziadz, Poland) according to the manufacturer’s instructions, using commercially available reagents (Bio-Ksel, Grudziadz, Poland). The experiment was conducted as three independent experiments (in duplicate); distilled water or methanol was used as the control.

[3] = tested on: clot formation and fibrinolysis in human citrate plasma; experiment: Clot formation and fibrinolysis test (CL-test); settings: for CLAUC overall potential for clot formation and fibrinolysis / Fmax maximum clotting / Fvo initial plasma clotting velocity / Lmax maximum lysis / Lvo initial clot fibrinolysis velocity / Sc area under the curve of stable clot formation / Sf area under the fibrinolysis curve / Sr area under the clot formation curve / Tc clot stabilization time / Tf plasma clotting time / Tl fibrinolysis time / Tt thrombin time: mean, n = 3
Protocol: Following this, the impact of the tested complex compounds and their ligands on the overall clot formation and fibrinolysis potential (CLAUC) and individual kinetic parameters was assessed using the CL-test. The analysis was performed using plasma from three different donors.
The blood samples used were residual materials from routine diagnostic studies, destined for disposal as medical waste. […] Platelet-poor plasma (PPP) and red blood cells were obtained using centrifugation at 3000× g for 10 min at room temperature using a Mikro 22R centrifuge (Hettich Zentrifugen, Tuttlingen, Germany). The plasma was used for the hemostasis tests. Before use, the centrifuged erythrocyte mass was washed three times with physiological saline solution to remove the plasma protein residues and other blood cells.
The influence of the compounds on the overall hemostasis potential was determined using the CL-test through continuous measurement of changes in optical transmittance, as described previously [53, 54]. The experiments were conducted using three-fold diluted human citrate plasma, t-PA and thrombin. […] The results are presented as means ± SD (n = 3). The curves were used to determine the kinetic parameters of clot formation, stabilization and fibrinolysis using dedicated software [51]. The following parameters of clot formation were determined: Tt—thrombin time (s), Fmax—maximum clotting (%T), Tf—plasma clotting time (s), Fvo—initial plasma clotting velocity (%T/min), Sr—area under the clot formation curve (%Txmin). The parameters of the clot stabilization phase comprised Tc—clot stabilization time (s) and Sc—area under the curve of stable clot formation (%Txmin). The parameters of fibrinolysis comprised Lmax—maximum lysis (%T), Tl—fibrinolysis time (s), Lvo—initial clot fibrinolysis velocity (%T/min) and Sf—area under the fibrinolysis curve (%Txmin). Additionally, the overall potential for clot formation and fibrinolysis, i.e., CLAUC (%Txmin), was also estimated.

red blood cells (RBCs) = experiment: Erythrotoxicity (RBC hemolysis, lysis assay); type: cell-based, human; settings: 24 h, 50 µmol/L and 100 µmol/L, 2% RBC suspension
Protocol: Their erythrotoxicity was also assessed. Red blood cells are model cells used in basic studies of the biocompatibility of new compounds and some medical materials. […] The amount of hemoglobin released from damaged cells was measured using a spectrophotometer.
Erythrotoxicity was assessed in a 2% erythrocyte suspension following 1 h and 24 h of incubation with the tested compounds.
as §1
The influence of the compounds on the red blood cells (RBCs)’ membrane integrity was assessed using a lysis assay, as described previously. Briefly, the tested compounds (1 to 100 μmol/L) were incubated in a 2% RBC suspension in 0.9% NaCl at 37 °C for 24 h; solvent was used as the control. The samples were then centrifuged at 3000× g for 10 min, and the absorbance of the supernatant was determined at 550 nm (maximum absorbance for hemoglobin). The results are presented as the degree of hemolysis, i.e., the percentage of released hemoglobin. A sample containing Triton X-100 was used as the positive control (100% hemolysis), whereas a sample of saline solution represented spontaneous hemolysis of the RBCs (control).

[4] = tested on: melanoma A375 tumor cell line; experiment: MTT reduction assay, A375 melanoma cells; type: cell-based, human
Protocol: (§2) The cytotoxic activity was measured against the melanoma A375 tumor cell line (ECACC) and the human BJ fibroblast cell line (ATCC) using an MTT reduction assay. The selectivity index (SI) was calculated using the following formula: SI = IC50 (BJ)/ IC50 (A375).
The A375 cell line was purchased from the European Collection of Authenticated Cell Cultures (ECACC, Salisbury, UK) and the BJ human fibroblast cell line from the American Type Culture Collection (ATCC, Manassas, VA, USA). All the cell lines were grown as a monolayer in standard conditions: 37 °C, 100% humidity, under an atmosphere of 5% CO2. […] The BJ cell line was grown in EMEM with EBSS, NEAA and sodium pyruvate with L-Glutamine supplemented, 10% fetal bovine serum and 50 IU/mL penicillin/streptomycin.
(§3) Next, the cells were seeded in 96-well plates at a density of 5000 cells per well and incubated overnight to reach the logarithmic growth phase. […] After 72 h, 10 µL of MTT solution (5 g/L) was added into each well and incubated for an additional four hours. Subsequently, the medium was removed, and 100 µL of dimethyl sulfoxide (DMSO) was added into each well. The absorbance was then measured at 570 nm using a SPECTROstar Nano microplate reader (BMG Biotech Inc., Cary, NC, USA)/Tecan Spark 10M. The mean value from three independent BJ and A375 cell cultures was taken to calculate the cell viability, expressed as a percentage of the control values, i.e., untreated cells assumed as 100%.

[5] = tested on: human BJ fibroblast cell line; experiment: MTT reduction assay, BJ fibroblasts; type: cell-based; settings: 72 h
Protocol: as §2
The A375 cell line was purchased from the European Collection of Authenticated Cell Cultures (ECACC, Salisbury, UK) and the BJ human fibroblast cell line from the American Type Culture Collection (ATCC, Manassas, VA, USA). All the cell lines were grown as a monolayer in standard conditions: 37 °C, 100% humidity, under an atmosphere of 5% CO2. The A375 cells were cultured in Dulbecco’s Modified Eagle Medium supplemented with 15% fetal calf serum and 50 IU/mL penicillin/streptomycin. The BJ cell line was grown in EMEM with EBSS, NEAA and sodium pyruvate with L-Glutamine supplemented, 10% fetal bovine serum and 50 IU/mL penicillin/streptomycin.
as §3

prolongation of PT and INR beyond the reference range ([1]; up to 100 µmol/L, reference PT 9.7–14.6 s, INR 0.8–1.2): do not cause pathological prolongation | effect on APTT ([2]; listed as metronidazole complex with Ag2SO4): significantly prolonged | effect on APTT ([2]; listed as metronidazole with Ag2SO4): statistically significant prolongation | CLAUC overall potential for clot formation and fibrinolysis ([3]; 0.5 µmol/L): 348.3 %*min | Fmax maximum clotting ([3]; 0.5 µmol/L): 70.6% | Fvo initial plasma clotting velocity ([3]; 0.5 µmol/L): 160.0 %/min | Lmax maximum lysis ([3]; 0.5 µmol/L): 69.8% | Lvo initial clot fibrinolysis velocity ([3]; 0.5 µmol/L): 20.3 %/min | Sc area under the curve of stable clot formation ([3]; 0.5 µmol/L): 165.1 %*min | Sf area under the fibrinolysis curve ([3]; 0.5 µmol/L): 135.9 %*min | Sr area under the clot formation curve ([3]; 0.5 µmol/L): 47.3 %*min | Tc clot stabilization time ([3]; 0.5 µmol/L): 144.3 s | Tf plasma clotting time ([3]; 0.5 µmol/L): 59.1 s | Tl fibrinolysis time ([3]; 0.5 µmol/L): 196.7 s | Tt thrombin time ([3]; 0.5 µmol/L): 20.1 s | CLAUC overall potential for clot formation and fibrinolysis ([3]; 1.0 µmol/L): 417.7 %*min | Fmax maximum clotting ([3]; 1.0 µmol/L): 73.8% | Fvo initial plasma clotting velocity ([3]; 1.0 µmol/L): 181.0 %/min | Lmax maximum lysis ([3]; 1.0 µmol/L): 73.5% | Lvo initial clot fibrinolysis velocity ([3]; 1.0 µmol/L): 19.8 %/min | Sc area under the curve of stable clot formation ([3]; 1.0 µmol/L): 207.8 %*min | Sf area under the fibrinolysis curve ([3]; 1.0 µmol/L): 157.6 %*min | Sr area under the clot formation curve ([3]; 1.0 µmol/L): 52.4 %*min | Tc clot stabilization time ([3]; 1.0 µmol/L): 174.3 s | Tf plasma clotting time ([3]; 1.0 µmol/L): 61.2 s | Tl fibrinolysis time ([3]; 1.0 µmol/L): 226.3 s | Tt thrombin time ([3]; 1.0 µmol/L): 20.5 s | CLAUC overall potential for clot formation and fibrinolysis ([3]; 5.0 µmol/L): 411.1 %*min | Fmax maximum clotting ([3]; 5.0 µmol/L): 78.6% | Fvo initial plasma clotting velocity ([3]; 5.0 µmol/L): 212.3 %/min | Lmax maximum lysis ([3]; 5.0 µmol/L): 77.9% | Lvo initial clot fibrinolysis velocity ([3]; 5.0 µmol/L): 24.8 %/min | Sc area under the curve of stable clot formation ([3]; 5.0 µmol/L): 210.7 %*min | Sf area under the fibrinolysis curve ([3]; 5.0 µmol/L): 155.5 %*min | Sr area under the clot formation curve ([3]; 5.0 µmol/L): 44.8 %*min | Tc clot stabilization time ([3]; 5.0 µmol/L): 166.7 s | Tf plasma clotting time ([3]; 5.0 µmol/L): 50.2 s | Tl fibrinolysis time ([3]; 5.0 µmol/L): 204.7 s | Tt thrombin time ([3]; 5.0 µmol/L): 19.7 s | CLAUC overall potential for clot formation and fibrinolysis ([3]; 10.0 µmol/L): 406.3 %*min | Fmax maximum clotting ([3]; 10.0 µmol/L): 75.7% | Fvo initial plasma clotting velocity ([3]; 10.0 µmol/L): 178.3 %/min | Lmax maximum lysis ([3]; 10.0 µmol/L): 75.0% | Lvo initial clot fibrinolysis velocity ([3]; 10.0 µmol/L): 21.5 %/min | Sc area under the curve of stable clot formation ([3]; 10.0 µmol/L): 203.7 %*min | Sf area under the fibrinolysis curve ([3]; 10.0 µmol/L): 156.2 %*min | Sr area under the clot formation curve ([3]; 10.0 µmol/L): 46.4 %*min | Tc clot stabilization time ([3]; 10.0 µmol/L): 166.7 s | Tf plasma clotting time ([3]; 10.0 µmol/L): 55.0 s | Tl fibrinolysis time ([3]; 10.0 µmol/L): 208.3 s | Tt thrombin time ([3]; 10.0 µmol/L): 20.7 s | CLAUC overall potential for clot formation and fibrinolysis ([3]; 50.0 µmol/L): 421.1 %*min | Fmax maximum clotting ([3]; 50.0 µmol/L): 76.9% | Fvo initial plasma clotting velocity ([3]; 50.0 µmol/L): 159.6 %/min | Lmax maximum lysis ([3]; 50.0 µmol/L): 74.3% | Lvo initial clot fibrinolysis velocity ([3]; 50.0 µmol/L): 21.7 %/min | Sc area under the curve of stable clot formation ([3]; 50.0 µmol/L): 184.0 %*min | Sf area under the fibrinolysis curve ([3]; 50.0 µmol/L): 175.2 %*min | Sr area under the clot formation curve ([3]; 50.0 µmol/L): 47.5 %*min | Tc clot stabilization time ([3]; 50.0 µmol/L): 158.7 s | Tf plasma clotting time ([3]; 50.0 µmol/L): 58.4 s | Tl fibrinolysis time ([3]; 50.0 µmol/L): 200.7 s | Tt thrombin time ([3]; 50.0 µmol/L): 20.7 s | CLAUC overall potential for clot formation and fibrinolysis ([3]; 100.0 µmol/L): 390.3 %*min | Fmax maximum clotting ([3]; 100.0 µmol/L): 72.3% | Fvo initial plasma clotting velocity ([3]; 100.0 µmol/L): 159.3 %/min | Lmax maximum lysis ([3]; 100.0 µmol/L): 72.0% | Lvo initial clot fibrinolysis velocity ([3]; 100.0 µmol/L): 22.1 %/min | Sc area under the curve of stable clot formation ([3]; 100.0 µmol/L): 194.4 %*min | Sf area under the fibrinolysis curve ([3]; 100.0 µmol/L): 145.2 %*min | Sr area under the clot formation curve ([3]; 100.0 µmol/L): 50.8 %*min | Tc clot stabilization time ([3]; 100.0 µmol/L): 166.3 s | Tf plasma clotting time ([3]; 100.0 µmol/L): 62.6 s | Tl fibrinolysis time ([3]; 100.0 µmol/L): 219.7 s | Tt thrombin time ([3]; 100.0 µmol/L): 20.5 s
SMILES: Cc1ncc([N+](=O)[O-])n1CCO.Cc1ncc([N+](=O)[O-])n1CCO.Cc1ncc([N+](=O)[O-])n1CCO.Cc1ncc([N+](=O)[O-])n1CCO.O=S(=O)([O-])[O-].[Ag+].[Ag+] [[(MTZ)2Ag]2SO4, metronidazole silver(I) sulfate]

effect on prothrombin time (PT) ([1]; 100 µmol/L, human citrated plasma): significantly lengthened
SMILES: O=S(=O)([O-])[O-].[Ag+].[Ag+] [Ag2SO4, reference compound]
erythrocyte hemolysis (red blood cells (RBCs)): > 60%

SMILES: O=[N+]([O-])[O-].[Ag+] [AgNO3, silver(I) nitrate]
effect on A375 cell viability ([4]; 72 h of exposure): dose-dependent reduction | IC50 ([4]; MTT, 72 h): 11.1 ± 0.8 µM | IC50 [5]: > 100 µM | erythrocyte hemolysis (red blood cells (RBCs)): > 60% | effect on CLAUC and kinetic parameters of clot formation and lysis ([3]; entire concentration range 0.5–100 µmol/L): no significant differences

From publication PMC11121064 (International Journal of Molecular Sciences, 2024)
